Experiments:
Design in all cases: recommended concentration 1 uM
[1] = biological target: T1, Retinoic acid receptor RXR-alpha (Homo sapiens) (UniProt P19793); experiment: Selectivity interaction (Reporter gene assay) EUB0001141a RXRA; conditions: reference bexarotene 1 uM, Selectivity number of off-targets 0.0, Selectivity number of targets 1.0, Source Knowledge inhouse
T1 sequence (whole entry): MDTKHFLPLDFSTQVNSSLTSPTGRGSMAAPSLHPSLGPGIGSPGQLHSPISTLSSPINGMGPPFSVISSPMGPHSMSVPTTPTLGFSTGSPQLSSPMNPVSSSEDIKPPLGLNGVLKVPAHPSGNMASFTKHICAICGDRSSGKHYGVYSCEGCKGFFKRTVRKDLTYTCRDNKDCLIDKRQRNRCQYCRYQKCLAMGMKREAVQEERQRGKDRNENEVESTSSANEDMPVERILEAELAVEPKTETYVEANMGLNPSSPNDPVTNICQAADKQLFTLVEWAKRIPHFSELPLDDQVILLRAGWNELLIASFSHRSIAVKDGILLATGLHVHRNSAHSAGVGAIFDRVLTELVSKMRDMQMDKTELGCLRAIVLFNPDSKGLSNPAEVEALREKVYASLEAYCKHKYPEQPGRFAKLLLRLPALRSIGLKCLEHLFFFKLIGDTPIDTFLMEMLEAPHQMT

[2] = biological target: Nuclear receptor subfamily 4immunitygroup A member 1 (Homo sapiens) (UniProt P22736); experiment: Selectivity interaction (Reporter gene assay) EUB0001141a NR4A1
[3] = biological target: T2, Nuclear receptor subfamily 2 group C member 1 (Homo sapiens) (UniProt P13056); experiment: Selectivity interaction (Reporter gene assay) EUB0001141a NR2C1
T2 sequence (whole entry): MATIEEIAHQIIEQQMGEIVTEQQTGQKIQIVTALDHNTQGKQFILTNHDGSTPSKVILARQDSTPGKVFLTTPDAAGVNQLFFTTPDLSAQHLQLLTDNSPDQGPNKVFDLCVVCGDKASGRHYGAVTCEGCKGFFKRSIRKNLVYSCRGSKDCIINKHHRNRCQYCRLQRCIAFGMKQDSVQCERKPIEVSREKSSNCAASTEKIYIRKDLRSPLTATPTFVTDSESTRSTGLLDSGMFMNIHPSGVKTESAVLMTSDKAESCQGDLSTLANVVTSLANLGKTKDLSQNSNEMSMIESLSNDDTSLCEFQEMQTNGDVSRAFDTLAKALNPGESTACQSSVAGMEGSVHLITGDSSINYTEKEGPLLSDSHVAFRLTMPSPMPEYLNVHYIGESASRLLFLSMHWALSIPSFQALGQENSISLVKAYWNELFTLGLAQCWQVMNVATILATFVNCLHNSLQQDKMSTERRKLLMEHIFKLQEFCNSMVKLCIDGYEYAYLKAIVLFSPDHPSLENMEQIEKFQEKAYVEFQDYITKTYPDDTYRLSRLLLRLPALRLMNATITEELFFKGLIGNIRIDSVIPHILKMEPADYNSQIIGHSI

[4] = biological target: Steroidogenic factor 1 (Homo sapiens) (UniProt Q13285); experiment: Selectivity interaction (Reporter gene assay) EUB0001141a NR5A1
[5] = biological target: Nuclear receptor subfamily 2 group E member 1 (Homo sapiens) (UniProt Q9Y466); experiment: Selectivity interaction (Reporter gene assay) EUB0001141a NR2E1
[6] = biological target: T3, Hepatocyte nuclear factor 4-alpha (Homo sapiens) (UniProt P41235); experiment: Selectivity interaction (Reporter gene assay) EUB0001141a HNF4A
T3 sequence (whole entry): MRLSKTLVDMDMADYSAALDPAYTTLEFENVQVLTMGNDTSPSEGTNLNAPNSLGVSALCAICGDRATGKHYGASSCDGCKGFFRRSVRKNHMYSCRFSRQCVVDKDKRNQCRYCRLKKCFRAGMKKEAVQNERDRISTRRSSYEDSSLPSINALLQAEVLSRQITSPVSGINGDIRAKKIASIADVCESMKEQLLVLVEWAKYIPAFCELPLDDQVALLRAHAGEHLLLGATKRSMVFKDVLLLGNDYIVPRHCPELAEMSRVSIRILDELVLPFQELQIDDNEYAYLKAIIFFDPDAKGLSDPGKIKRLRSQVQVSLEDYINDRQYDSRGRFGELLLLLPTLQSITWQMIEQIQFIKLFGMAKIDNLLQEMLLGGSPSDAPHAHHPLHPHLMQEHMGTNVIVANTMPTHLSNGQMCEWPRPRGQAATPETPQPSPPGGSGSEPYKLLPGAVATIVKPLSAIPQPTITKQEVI

[7] = biological target: T4, Alpha trans-inducing protein (Human alphaherpesvirus 1) (UniProt A0A5J6DW59); experiment: Selectivity interaction (Reporter gene assay) EUB0001141a UL48
[8] = biological target: T5, Peroxisome proliferator-activated receptor gamma (Homo sapiens) (UniProt P37231); experiment: Selectivity interaction (Reporter gene assay) EUB0001141a PPARG; conditions: screened at recom. conc., Selectivity number of off-targets 1.0, Selectivity number of targets 19.0, Source Knowledge inhouse
T5 sequence (whole entry): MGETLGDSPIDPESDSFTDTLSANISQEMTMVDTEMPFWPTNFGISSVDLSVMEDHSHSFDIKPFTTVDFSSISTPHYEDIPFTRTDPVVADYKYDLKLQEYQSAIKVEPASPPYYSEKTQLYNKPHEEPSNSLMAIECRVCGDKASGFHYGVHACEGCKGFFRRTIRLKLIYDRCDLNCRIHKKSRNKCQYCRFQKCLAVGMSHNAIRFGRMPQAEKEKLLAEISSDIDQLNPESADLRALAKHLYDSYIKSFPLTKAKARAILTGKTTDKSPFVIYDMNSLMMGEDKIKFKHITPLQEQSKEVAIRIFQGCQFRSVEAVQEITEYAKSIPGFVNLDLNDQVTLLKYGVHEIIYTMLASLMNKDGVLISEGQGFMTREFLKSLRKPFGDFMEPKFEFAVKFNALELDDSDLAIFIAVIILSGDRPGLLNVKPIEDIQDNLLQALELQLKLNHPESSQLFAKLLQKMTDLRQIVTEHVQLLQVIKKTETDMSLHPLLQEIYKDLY

[9] = biological target: T2, Nuclear receptor subfamily 2 group C member 1 (Homo sapiens); experiment: Selectivity interaction (Reporter gene assay) EUB0001144a NR2C1
[10] = biological target: T4, Alpha trans-inducing protein (Human alphaherpesvirus 1); experiment: Selectivity interaction (Reporter gene assay) EUB0001144a UL48
[11] = biological target: T1, Retinoic acid receptor RXR-alpha (Homo sapiens); experiment: Selectivity interaction (Reporter gene assay) EUB0001144a RXRA; conditions: reference bexarotene 1 uM, Selectivity number of off-targets 0.0, Selectivity number of targets 1.0, Source Knowledge inhouse
[12] = biological target: T3, Hepatocyte nuclear factor 4-alpha (Homo sapiens); experiment: Selectivity interaction (Reporter gene assay) EUB0001144a HNF4A
[13] = biological target: Nuclear receptor subfamily 2 group E member 1 (Homo sapiens) (UniProt Q9Y466); experiment: Selectivity interaction (Reporter gene assay) EUB0001144a NR2E1
[14] = biological target: Nuclear receptor subfamily 4immunitygroup A member 1 (Homo sapiens) (UniProt P22736); experiment: Selectivity interaction (Reporter gene assay) EUB0001144a NR4A1
[15] = biological target: Steroidogenic factor 1 (Homo sapiens) (UniProt Q13285); experiment: Selectivity interaction (Reporter gene assay) EUB0001144a NR5A1
[16] = biological target: Steroidogenic factor 1 (Homo sapiens) (UniProt Q13285); experiment: Selectivity interaction (Reporter gene assay) EUB0001139a NR5A1; conditions: screened at recom. conc., Selectivity number of off-targets 1.0, Selectivity number of targets 5.0, Source Knowledge inhouse
[17] = biological target: Nuclear receptor subfamily 4immunitygroup A member 1 (Homo sapiens) (UniProt P22736); experiment: Selectivity interaction (Reporter gene assay) EUB0001139a NR4A1
[18] = biological target: T3, Hepatocyte nuclear factor 4-alpha (Homo sapiens); experiment: Selectivity interaction (Reporter gene assay) EUB0001139a HNF4A
[19] = biological target: T2, Nuclear receptor subfamily 2 group C member 1 (Homo sapiens); experiment: Selectivity interaction (Reporter gene assay) EUB0001139a NR2C1
[20] = biological target: Nuclear receptor subfamily 2 group E member 1 (Homo sapiens) (UniProt Q9Y466); experiment: Selectivity interaction (Reporter gene assay) EUB0001139a NR2E1
[21] = biological target: T4, Alpha trans-inducing protein (Human alphaherpesvirus 1); experiment: Selectivity interaction (Reporter gene assay) EUB0001139a UL48
[22] = biological target: T1, Retinoic acid receptor RXR-alpha (Homo sapiens); experiment: Selectivity interaction (Reporter gene assay) EUB0001139a RXRA
[23] = biological target: SRSF protein kinase 1 (Homo sapiens) (UniProt Q96SB4); experiment: Selectivity interaction (Kinase panel (binding assay)) EUB0001089a SRPK1; conditions: at 25 µM
[24] = biological target: Peroxisome proliferator-activated receptor delta (Homo sapiens) (UniProt Q03181); experiment: Selectivity interaction (Reporter gene assay) EUB0001140a PPARD; conditions: screened at recom. conc., Selectivity number of off-targets 1.0, Selectivity number of targets 19.0, Source Knowledge inhouse
[25] = biological target: T4, Alpha trans-inducing protein (Human alphaherpesvirus 1); experiment: Selectivity interaction (Reporter gene assay) EUB0001140a UL48
[26] = biological target: Nuclear receptor subfamily 4immunitygroup A member 1 (Homo sapiens) (UniProt P22736); experiment: Selectivity interaction (Reporter gene assay) EUB0001140a NR4A1
[27] = biological target: T3, Hepatocyte nuclear factor 4-alpha (Homo sapiens); experiment: Selectivity interaction (Reporter gene assay) EUB0001140a HNF4A
[28] = biological target: Steroidogenic factor 1 (Homo sapiens) (UniProt Q13285); experiment: Selectivity interaction (Reporter gene assay) EUB0001140a NR5A1
[29] = biological target: T2, Nuclear receptor subfamily 2 group C member 1 (Homo sapiens); experiment: Selectivity interaction (Reporter gene assay) EUB0001140a NR2C1
[30] = biological target: T1, Retinoic acid receptor RXR-alpha (Homo sapiens); experiment: Selectivity interaction (Reporter gene assay) EUB0001140a RXRA
[31] = biological target: Nuclear receptor subfamily 2 group E member 1 (Homo sapiens) (UniProt Q9Y466); experiment: Selectivity interaction (Reporter gene assay) EUB0001140a NR2E1

T4 sequence (A0A5J6DW59 as listed by the source): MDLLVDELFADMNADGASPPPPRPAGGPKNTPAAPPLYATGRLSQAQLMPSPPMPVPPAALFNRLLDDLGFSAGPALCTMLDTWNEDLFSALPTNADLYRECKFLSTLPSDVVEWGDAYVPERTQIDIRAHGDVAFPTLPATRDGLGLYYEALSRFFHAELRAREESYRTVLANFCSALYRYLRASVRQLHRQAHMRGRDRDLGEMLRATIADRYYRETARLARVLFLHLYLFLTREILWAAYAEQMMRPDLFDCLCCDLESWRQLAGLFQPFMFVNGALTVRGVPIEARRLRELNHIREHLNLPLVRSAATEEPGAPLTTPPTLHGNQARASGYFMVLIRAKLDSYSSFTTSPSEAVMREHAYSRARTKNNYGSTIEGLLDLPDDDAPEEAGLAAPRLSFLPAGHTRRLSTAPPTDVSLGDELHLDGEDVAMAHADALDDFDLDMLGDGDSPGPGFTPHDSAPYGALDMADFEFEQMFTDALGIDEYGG
Steroidogenic factor 1 (Homo sapiens), sequence (Q13285 whole entry): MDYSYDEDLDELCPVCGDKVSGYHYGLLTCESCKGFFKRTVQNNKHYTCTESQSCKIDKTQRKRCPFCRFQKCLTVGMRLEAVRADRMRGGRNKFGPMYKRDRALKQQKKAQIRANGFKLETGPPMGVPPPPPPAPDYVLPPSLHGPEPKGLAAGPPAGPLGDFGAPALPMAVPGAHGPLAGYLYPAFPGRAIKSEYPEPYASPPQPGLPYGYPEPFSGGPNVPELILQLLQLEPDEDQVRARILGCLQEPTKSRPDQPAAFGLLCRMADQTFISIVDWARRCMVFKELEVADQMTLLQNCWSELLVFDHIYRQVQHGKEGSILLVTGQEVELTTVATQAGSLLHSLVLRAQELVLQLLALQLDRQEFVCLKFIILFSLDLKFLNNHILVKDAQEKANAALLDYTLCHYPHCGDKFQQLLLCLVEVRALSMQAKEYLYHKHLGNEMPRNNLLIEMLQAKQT
Nuclear receptor subfamily 4immunitygroup A member 1 (Homo sapiens), sequence (P22736 whole entry): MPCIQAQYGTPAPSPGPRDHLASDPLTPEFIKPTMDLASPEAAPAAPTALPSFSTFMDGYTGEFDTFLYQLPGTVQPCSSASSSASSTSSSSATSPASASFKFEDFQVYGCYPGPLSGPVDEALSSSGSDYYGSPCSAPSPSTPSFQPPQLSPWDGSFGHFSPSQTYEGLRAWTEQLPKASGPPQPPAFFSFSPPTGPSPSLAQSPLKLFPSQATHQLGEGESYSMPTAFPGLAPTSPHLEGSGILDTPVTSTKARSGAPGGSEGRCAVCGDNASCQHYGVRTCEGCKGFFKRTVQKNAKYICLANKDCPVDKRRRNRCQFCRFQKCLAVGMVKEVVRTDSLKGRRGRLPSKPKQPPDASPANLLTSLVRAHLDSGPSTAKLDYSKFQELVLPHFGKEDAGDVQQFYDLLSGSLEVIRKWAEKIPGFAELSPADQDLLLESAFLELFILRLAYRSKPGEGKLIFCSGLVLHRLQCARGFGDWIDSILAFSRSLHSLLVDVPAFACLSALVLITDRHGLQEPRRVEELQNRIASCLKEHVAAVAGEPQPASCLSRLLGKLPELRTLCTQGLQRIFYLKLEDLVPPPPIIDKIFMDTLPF
Nuclear receptor subfamily 2 group E member 1 (Homo sapiens), sequence (Q9Y466 whole entry): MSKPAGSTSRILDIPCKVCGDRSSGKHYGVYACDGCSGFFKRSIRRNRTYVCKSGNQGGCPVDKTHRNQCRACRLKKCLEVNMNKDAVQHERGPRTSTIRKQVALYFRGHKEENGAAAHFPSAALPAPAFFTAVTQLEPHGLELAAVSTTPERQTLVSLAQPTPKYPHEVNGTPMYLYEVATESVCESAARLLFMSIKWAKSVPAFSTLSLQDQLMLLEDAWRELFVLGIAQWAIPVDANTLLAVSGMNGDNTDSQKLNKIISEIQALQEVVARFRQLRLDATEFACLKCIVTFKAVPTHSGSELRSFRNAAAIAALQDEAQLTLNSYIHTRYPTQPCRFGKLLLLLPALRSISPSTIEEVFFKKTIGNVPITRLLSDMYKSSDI
Peroxisome proliferator-activated receptor delta (Homo sapiens), sequence (Q03181 whole entry): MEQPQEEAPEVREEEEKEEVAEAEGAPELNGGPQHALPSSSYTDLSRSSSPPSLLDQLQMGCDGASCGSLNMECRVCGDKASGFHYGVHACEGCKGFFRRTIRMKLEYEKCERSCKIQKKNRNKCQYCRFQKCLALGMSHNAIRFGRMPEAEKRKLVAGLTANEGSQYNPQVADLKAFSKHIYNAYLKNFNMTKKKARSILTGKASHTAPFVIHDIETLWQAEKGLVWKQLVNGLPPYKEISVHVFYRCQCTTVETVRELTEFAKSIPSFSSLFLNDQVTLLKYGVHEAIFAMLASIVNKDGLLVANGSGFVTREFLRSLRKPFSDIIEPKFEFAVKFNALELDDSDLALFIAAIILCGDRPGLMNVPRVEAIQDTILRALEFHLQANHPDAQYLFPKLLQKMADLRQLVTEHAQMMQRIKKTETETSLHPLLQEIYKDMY
SRSF protein kinase 1 (Homo sapiens), sequence (Q96SB4 whole entry): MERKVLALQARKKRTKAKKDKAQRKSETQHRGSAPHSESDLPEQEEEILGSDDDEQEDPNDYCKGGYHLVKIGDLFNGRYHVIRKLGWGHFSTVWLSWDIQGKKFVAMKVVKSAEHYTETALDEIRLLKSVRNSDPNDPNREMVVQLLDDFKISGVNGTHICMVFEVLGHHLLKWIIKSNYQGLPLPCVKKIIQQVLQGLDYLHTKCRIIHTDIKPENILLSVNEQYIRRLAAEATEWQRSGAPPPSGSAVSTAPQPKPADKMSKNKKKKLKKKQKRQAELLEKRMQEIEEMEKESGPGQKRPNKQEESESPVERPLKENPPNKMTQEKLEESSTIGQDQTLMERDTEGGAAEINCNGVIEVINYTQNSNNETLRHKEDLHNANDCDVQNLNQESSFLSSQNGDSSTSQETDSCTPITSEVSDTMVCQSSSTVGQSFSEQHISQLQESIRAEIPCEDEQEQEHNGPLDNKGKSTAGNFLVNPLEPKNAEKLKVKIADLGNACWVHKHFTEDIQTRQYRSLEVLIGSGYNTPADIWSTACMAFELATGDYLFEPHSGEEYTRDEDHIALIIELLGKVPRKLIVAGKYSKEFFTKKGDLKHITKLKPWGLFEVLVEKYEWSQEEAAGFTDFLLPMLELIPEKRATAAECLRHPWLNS

Question: What does the source list for `Cc1nc(-c2ccc(C(F)(F)F)cc2)sc1C(=O)NCc1ccc(OC(C)(C)C(=O)O)cc1`?
Answer: Relative activation [1]: 0.895%; Remaining activity [2]: 0.875; Remaining activity [3]: 0.982; Fold activation [4]: 1.12; Fold activation [5]: 0.997; Remaining activity [6]: 0.924; P-value [7]: 7.52e-07; Fold activation [8]: 2.82

Question: Which Fold activation [9] does the source give for `CCO[C@@H](Cc1ccc(OCCc2ccc(OS(C)(=O)=O)cc2)cc1)C(=O)O` here?
Answer: 1.11

Question: What about the P-value [10] of the same compound?
Answer: 0.0008

Question: And the Relative activation [11]?
Answer: 0.813%

Question: And the Fold activation [12]?
Answer: 1.01

Question: And the Fold activation [13]?
Answer: 1.07

Question: What about the Remaining activity [14] of the same compound?
Answer: 0.821

Question: What about the Fold activation [15] of the same compound?
Answer: 1.01

Question: Which Fold activation [16] does the source give for `O=C(O)Cc1cc(I)c(Oc2ccc(O)c(I)c2)c(I)c1` here?
Answer: 2

Question: What about the Remaining activity [17] of the same compound?
Answer: 0.863

Question: What about the Fold activation [18] of the same compound?
Answer: 1.47

Question: What about the Remaining activity [19] of the same compound?
Answer: 0.686

Question: What about the Fold activation [20] of the same compound?
Answer: 1.12

Question: And the P-value [21]?
Answer: 0.009

Question: And the Relative activation [22]?
Answer: 0.726%

Question: Which inhibition [23] does the source give for `CN1CC(C(=O)NCc2ccc3c(-c4cccc(C(N)=S)c4)cn(C4CCN(S(=O)(=O)C(F)(F)F)CC4)c3c2)C1` here?
Answer: 60%

Question: `COc1ccc(OC(=O)N(CC(=O)O)Cc2ccc(OCCc3nc(-c4ccccc4)oc3C)cc2)cc1` was tested. Which Fold activation [24] did it give?
Answer: 6.61

Question: What about the P-value [25] of the same compound?
Answer: 2.24e-06

Question: And the Fold activation [26]?
Answer: 1.19

Question: And the Remaining activity [27]?
Answer: 0.799

Question: What about the Remaining activity [28] of the same compound?
Answer: 0.916

Question: And the Remaining activity [29]?
Answer: 0.747

Question: And the Relative activation [30]?
Answer: 0.862%

Question: What about the Remaining activity [31] of the same compound?
Answer: 0.91
